This is an account of results in patent publication US9889092B2, “Low density lipoprotein nanocarriers for targeted delivery of omega-3 polyunsaturated fatty acids to cancer” (The Board of Regents of the University of Texas System, priority 2013, dated 2018).

Data set [1] can be described thus: Oxidative stability of LDL nanoparticles (peroxide value, HPLC DHA content). The data set is classed as physicochemical. The note with it: under air at 55° C. for 5 hrs. An excerpt:
FIGS. 4A-D. Oxidative stability: (FIG. 4A) HPLC determination of DHA content in LDL nanoparticles and DHA in heptane; (**) p<0.01 DHA in heptane versus LDL-DHA, after 14 days; (***) p<0.001, DHA in heptane versus LDL-DHA, after 21 and 28 days. (FIG. 4B) Peroxide indices of LDL, DHA in heptane, and LDL-DHA nanoparticles. Samples from FIG. 4A and FIG. 4B were stored at ambient conditions and were subjected to HPLC or peroxide analysis at baseline, 7, 14, 21, and 28 days; (**) p<0.01, DHA in heptane versus LDL-DHA after 14 days; (***) p<0.001, LDL or DHA in heptane versus LDL-DHA after 21 and 28 days; (****) p<0.0001, LDL versus LDL-DHA, after 28 days. […] DHA content is expressed as a percentage of baseline control. The peroxide index is expressed as mEq of peroxide/Kg of lipid.
Oxidative stability of LDL nanoparticles. […] Absorbance of red color formed from the presence of ferric ion was measured at 500 nm using UV-visible spectrophotometer (UV 1800, Shimadzu, USA) and the concentration was determined using a calibration curve of ferric chloride (FeCl3). […] The peroxide value was calculated using the following formula: PV=[Fe3+]/(55.84×g of lipids×2) where 55.84 is the molecular weight of iron. Results were expressed as mEq peroxide/kg lipid.

Another data set relates to TIB-75 cells. The data set can be described thus: Cell toxicity assay (MTS), TIB-75. The note with it: 40 μM LDL-DHA with 100 or 200 μM Vitamin E, 72 hours. The data set is classed as cell-based, mouse. As for the experimental part: Cell culture. The mouse liver cell line TIB-73 (BNL CL.2) and its malignant counterpart TIB-75 (BNL 1MEA.7R.1) were obtained from ATCC (Manassas, Va.) and cultured in Dulbeco's modified Eagle's medium (DMEM) supplemented with 10% fetal bovine serum (FBS). Cells were grown at 37° C. in an atmosphere of 5% CO2 in a humidified incubator.
Cell toxicity assay (MTS). Each cell type was seeded in 96-well plates (2×10^3 cells/well). After 48 hrs of culture, the cells received various concentrations of the LDL-DHA nanoparticles ranging from 0 to 100 μM (DHA). For controls (LDL-OA/TO) dosing went as high as 200 μM. At the end of the 72 hr treatment period, the cell viability was measured by the MTS assay as recommended by the manufacturer. In brief, 20 μL MTS solution was added to each well and cells were incubated at 37° C. for 4 hrs followed by absorbance readings at 490 nm. The relative cell viability is expressed as a percentage of the non treated controls.

In the case of `CC/C=C\C/C=C\C/C=C\C/C=C\C/C=C\C/C=C\CCC(=O)O` [DHA in heptane, docosahexaenoic acid], in data set [1], the “oxidative stability in final stress test” value is “significant degradative peroxidation”.
Turning to vitamin E, the “effect of co-incubation on LDL-DHA cytotoxicity in TIB-75 cells” value with TIB-75 cells was “effectively abrogate the cytotoxicity of LDL-DHA”.
